Experimental data published in PubChem BioAssay AID179 (DTP/NCI, 2004).
Activity calls are given as the source filed them.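 The calls were made as follows: active = compounds giving half or more protection of infected cells from virus-caused growth loss, again on retest; inactive = the rest.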

System: CEM cells HIV-1 protection, formazan growth assay
Assay: NCI AIDS Antiviral Assay
Settings: for IC50: measured here: growth of uninfected CEM cells
How it was run: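 CEM (human) cells, HIV-1 infected vs uninfected, 5-point dosing, formazan growth read-out. Retest threshold 50% protection.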

SMILES | EC50 | IC50 | outcome
Fc1cccc(C2SCc3nc4cc5ccccc5cc4n32)c1 (stereo not drawn) | > 200 µM | > 200 µM | 
CN(C)CN(C)c1nc(N(C)C)nc(N(C)CN(C)C)n1 | > 200 µM | 32.4 µM | 
CCOC(=O)C1(C#N)C(c2ccccc2)CC(O)(c2ccc(Cl)cc2)C(C(=O)c2ccc(Cl)cc2)C1c1ccccc1 (stereo not drawn) | > 12 µM | > 12 µM | 
BrCCCCCOc1ccc(-c2c3ccccc3c(-c3ccc(OCCCCCBr)cc3)c3ccccc23)cc1 | > 100 µM | > 100 µM | 
C(=NCCN=Cc1cccc2ccccc12)c1cccc2ccccc12 |  |  | inactive
O=C(CP(=O)(O)O)NC(CC(=O)OCc1ccccc1)C(=O)OCc1ccccc1 (stereo not drawn) | > 100 µM | > 100 µM | 
Cn1c(=O)c2sc3c4sc5c(=O)n(C)c6ccccc6c5c4sc3c2c2ccccc21 | > 200 µM | > 200 µM | 
COC(=O)Cc1c2n(c3ccccc13)C(=O)N1c3ccccc3C(CC(=O)OC)C21 (stereo not drawn) | > 200 µM | > 200 µM | 
OCC(O)C(OC1OC(CO)C(O)C(O)C1O)c1nn(-c2ccccc2)c2nc3cc(Cl)c(Cl)cc3cc12 (stereo not drawn) |  |  | inactive
O=C1C=C(N2CCOCC2)c2cnccc2C1=O |  |  | inactive
O=C(NCCCC1C2CCC(C2)C1CNC(=O)Nc1cccc(Cl)c1)Nc1cccc(Cl)c1 (stereo not drawn) | > 200 µM | 3.63 µM | 
CCC(=O)N1NC(=O)C(CC)(CC)C1=O | > 200 µM | > 200 µM | 
COC1/C=C/OC2(C)Oc3c(C)c(O)c4c(O)c(c(C=NNC(=O)c5ccc(N)cc5)c(O)c4c3C2=O)NC(=O)/C(C)=C/C=C/C(C)C(O)C(C)C(O)C(C)C(OC(C)=O)C1C (stereo not drawn) | > 138 µM | 107 µM | 
CC1(C)N=C(C(=O)c2ccccc2)N(O)C1(O)c1ccccc1 (stereo not drawn) | > 200 µM | 135 µM | 
OC1OCC(COc2cc(Cl)c(Cl)cc2Cl)OC1O (stereo not drawn) | > 30.2 µM | > 30.2 µM | 
C=CCN=C1NC(=O)C(CC(=O)Nc2cccc(Cl)c2)S1 (stereo not drawn) | > 288 µM | > 288 µM | 
O=C(O)CCC(NC(=O)c1ccc(Nc2nc3ccc(C(F)(F)F)cc3nc2C(=O)O)cc1)C(=O)O (stereo not drawn) | > 200 µM | > 200 µM | 
COc1cc2c(cc1OC)C(=O)Cc1ccc(OC)c(OC)c1CN(C)CC2 | > 67.6 µM | > 67.6 µM | 
CCC1C2C=CC(CC2)N1S(=O)(=O)c1ccc(C)cc1 (stereo not drawn) | > 64.6 µM | 36.3 µM | 
CCC1=CCC(P(=O)(c2ccccc2)c2ccccc2)CC1C (stereo not drawn) | > 11.5 µM | > 11.5 µM | 
Cc1cc(C)c2c(n1)sc1c(=O)n(N)c(C)nc12 |  |  | inactive
O=[N+]([O-])c1ccc(N/N=C2\C=CCCC2)c([N+](=O)[O-])c1 | > 200 µM | > 200 µM | 
COc1ccccc1/C=C1\N=C(C)OC1=O |  |  | inactive
Fc1sc2c(c1F)C1CCC2C1 (stereo not drawn) | > 200 µM | 115 µM | 

SMILES | EC50 | IC50 | outcome
COCCCNc1nc(N)c(C#N)c(C#N)c1C#N |  |  | inactive
CC(=O)OCC(OC(C)=O)C(OC(C)=O)C(OC(C)=O)C(=O)CNn1c(-c2ccc(C)cc2)nc2ccccc2c1=O (stereo not drawn) |  |  | inactive
CCOC(=O)CCc1c(C)[nH]c2c(C)c3c([nH]c4ccc(Cl)cc43)c(C)c2c1=O | > 200 µM | 11 µM | 
CC1(C)COC2=C(C1)C(=O)c1ccccc1C2=O | > 200 µM | 0.708 µM | 
COc1ccc(C2=C(C#N)C(=O)OCCN2C)cc1 | > 200 µM | > 200 µM | 
S=C(N1CCN(c2cccc(Cl)c2)CC1)N1CCN(c2cccc(Cl)c2)CC1 | > 200 µM | 72.4 µM | 
CC(C)OC(=O)[C@H]1ON2O[C@H](O[C@@H]3CCCC[C@H]3c3ccccc3)C([Si](C)(C)c3ccccc3)[C@H]3OC(=O)[C@@H]1C32 (stereo partly drawn) | > 200 µM | 158 µM | 
CCCCCCCNC(=S)N/N=C/c1ccccc1O | > 200 µM | 10.5 µM | 
C/C(=N\OC(=O)Nc1cccc(Cl)c1)c1ccccc1 | > 200 µM | 32.4 µM | 
COc1ccc(C(=O)/C(=N/Nc2ccccc2)c2ccc(OC)cc2)cc1 |  |  | inactive
CC(=S)N=Cc1c(O)cc(C)oc1=O | > 200 µM | > 200 µM | 
Cc1c(C)c(C)c(Cn2[nH]c(=O)n(C)c2=O)c(C)c1C | > 200 µM | > 200 µM | 
Cc1cccc(C2=NC(C)(C)C(C)(C)N=C2c2cccc(C)n2)n1 | > 81.3 µM | > 81.3 µM | 
Cn1c(=O)c2nc(-c3ccccc3)nnc2n(C)c1=O | > 200 µM | 93.3 µM | 
CC(=O)Nc1ccc(/C=C/c2ccc(N=C=S)cc2S(=O)(=O)O)c(S(=O)(=O)O)c1 | > 21.9 µM | > 21.9 µM | 
O=C(Sc1c(-c2ccccc2)c(=O)n(-c2ccccc2)c(=S)n1-c1ccccc1)c1cccs1 | > 200 µM | 21.9 µM | 
COc1cc2c(c(OC)c1OC)-c1ccc(SC)c(=O)cc1[C@@H](NC(=O)C(F)(F)F)CC2 | > 75.9 µM | 0.0245 µM | 
CC(C)(C)OC(=O)NC(CCCCNC(=O)OCc1ccccc1)C(=O)NCCNc1ccc(NCCNC(=O)C(CCCCNC(=O)OCc2ccccc2)NC(=O)OC(C)(C)C)c2c1C(=O)c1ccccc1C2=O (stereo not drawn) | > 151 µM | 8.51 µM | 
COC(=O)C1CCOC(C)N1C(=O)OC(C)(C)C (stereo not drawn) | > 200 µM | > 200 µM | 
O=Nc1ccccc1N=O |  |  | inactive
CCOP(=O)(CC(C)P(=O)(OCC)OCC)OCC.C[CH2][Sn]([Cl])([Cl])[CH2]C (stereo not drawn) | > 447 µM | 1.7 µM | 
O=C1C2Nc3ccccc3SC2C(=O)N1c1ccccc1C(F)(F)F (stereo not drawn) | > 20 µM | 15.1 µM | 
O=C(NCCNCCNC(=O)c1cc(-c2ccccc2)nc2ccccc12)c1cc(-c2ccccc2)nc2ccccc12 | > 20 µM | 3.47 µM | 
Cc1cc2n(C)cc(-c3ccnn3C)c(=O)n2n1 | > 151 µM | > 151 µM | 

SMILES | EC50 | IC50 | outcome
COc1ccc(C2=C(OC(=O)N(C)C)c3cccn3-c3cc(C(F)(F)F)ccc3S2)cc1 | > 200 µM | > 200 µM | 
CN1CC(=O)NC2C(=CN(Cc3ccccc3)c3ccccc32)C1=O (stereo not drawn) | > 200 µM | > 200 µM | 
O=c1ccn(CC2(CO)CCC2)c(=O)[nH]1 | > 200 µM | > 200 µM | 
Cc1ccc(-c2cc[n+]3c(n2)oc2ccccc23)cc1 | > 200 µM | 3.63 µM | 
O=c1[nH]c(=O)n(C2CC(O)C(CO)O2)cc1OS(=O)(=O)C(F)(F)F (stereo not drawn) | > 661 µM | 9.77 µM | 
COC(=O)C(=O)C(/C=N/C(=S)N=Nc1c(O)[nH]c2ccccc12)=C(\O)c1c(C)[nH]c2ccccc12 | 26.9 µM | 105 µM | 
CC(C)(C)c1ccc(-c2nc3ccc([N+](=O)[O-])cc3c(=O)o2)cc1 | > 200 µM | 8.91 µM | 
O=[N+]([O-])c1cc(-c2nc(=S)[nH][nH]2)ccc1O | > 1050 µM | 257 µM | 
N/C(=N\N=C/c1ccc(OCc2ccccc2)cc1)NO |  |  | inactive
COCCN(CCOC)C1C2=C(CCCC2)OS(=O)(=O)C1c1ccccc1 (stereo not drawn) | > 66.1 µM | > 66.1 µM | 
CC(C)(C)OC(=O)Cc1ccc2c(ccn2Cc2ccccc2)c1 |  |  | inactive
O=c1c2c3c(sc2nc2n1N=C(c1ccc(Br)cc1)CS2)CCCC3 | > 200 µM | > 200 µM | 
O=P1(O)c2ccccc2CCc2ccccc21 | > 200 µM | > 200 µM | 
CC(=O)N1CCC2(c3ccccc3N(C(C)=O)C2c2ccc(O)cc2)C1C(=O)O (stereo not drawn) |  |  | inactive
COC(=O)C(C)NC1=C(Cl)C(=O)C(NC(C)C(=O)OC)=C(Cl)C1=O (stereo not drawn) |  |  | inactive
Cc1cn(CC(=O)NCCCO)c(=O)[nH]c1=O | > 200 µM | > 200 µM | 
COc1cc(/C=C2\C(=O)N(c3cccc(Cl)c3)C(c3ccccc3)S2(=O)=O)cc(OC)c1OC (stereo not drawn) | > 200 µM | 112 µM | 
C=C1SC(=Nc2ccc(Cl)cc2)N(c2nc(Cl)nc(Cl)n2)C12CCCCC2 | > 100 µM | > 100 µM | 
c1ccc(Cc2nnc3n2CCC(c2ccccc2)S3)cc1 (stereo not drawn) | > 200 µM | > 200 µM | 
CC(=O)c1sc2c(c1O)c(=O)n(-c1ccccc1)c(=S)n2-c1ccccc1 | > 240 µM | 70.8 µM | 
CC(C)N(C(=O)C12C3C4C1C1C2C3C41C(N)=O)C(C)C (stereo not drawn) | > 912 µM | > 912 µM | 
CCC1NCC(=O)c2c1[nH]c1ccccc21 (stereo not drawn) |  |  | inactive
COc1ccccc1NC(=S)/N=C/c1c(O)[nH]c(=O)[nH]c1=O | > 200 µM | > 200 µM | 
